Where two headings read alike, the source gives them in different places.
How the values were obtained:
[1] = test system: contact dermatitis model mouse; experiment: Suppression of ear swelling in contact dermatitis model mouse (DNFB); type: in vivo; settings: oral 0.3 or 3 mg/mL at 10 mL/Kg once a day, 24 hours from initiation, FIG. 7
Procedure: Using a contact dermatitis model mouse against DNFB <Non-Patent Literature 10>, the ear swelling suppressing action of the JAK inhibitor was evaluated. As an experimental animal, an 8 weeks old female C57BL/6j mouse {SHIMIZU Laboratory Supplies Co., Ltd.} was used.
An abdominal region of the mouse was shaved, and each 0.025 mL of 0.5% (w/v) DNFB {2,4-Dinitrofluorobenzene, Sigma-Aldrich Corporation} diluted with AOO <mixed solution of acetone and olive oil in 4:1> was applied on the abdominal region . After five days, each 0.01 mL of 0.3% (w/v) DNFB diluted with AOO was applied on the front and back of both the auricles of the mouse . For five days from the date of sensitization, 0.5% (w/v) methylcellulose <MC> was administered once a day to the Vehicle group, and 0.3 mg/mL or 3 mg/mL of Compound A suspended in 0.5% (w/v) MC was orally administered to Compound A administration group in a dose of 10 mL/Kg. Each group included three animals. On the days of sensitization and initiation, 0.5% (w/v) MC or Compound A was orally administered one hour before sensitization and initiation.
Before initiation and after 24 hours from initiation, the thickness of each auricle was measured once with a thickness gauge {TECLOCK Corporation}, and an average of the variation from the thickness of each auricle before initiation was taken as an individual value.

[2] = test system: Tape Stripping-treated mouse; experiment: NMF production increasing action in Tape Stripping-treated mouse (confocal Raman); type: in vivo; settings: 0.5% (w/v) in acetone applied to auricle once a day, one, five and seven days after Tape Stripping, FIGS. 5, 6
Procedure: As an experimental animal, an 8 to 10 weeks old female C57BL/6j mouse {SHIMIZU Laboratory Supplies Co., Ltd.} was used.
The operation of sticking a cellophane adhesive tape {NICHIBAN CO. , Ltd.} on the inner side of the left auricle of the mouse and peeling the tape off <Tape Stripping> was repeated five times to peel off the cuticle. Each 0.02 mL of acetone <Vehicle> or 0.5% (w/v) test substance was applied to the site having undergone the Tape Stripping once a day until the sixth day after the Tape Stripping. On Day 1 of the Tape Stripping, acetone <Vehicle> or a test substance was applied one hour after the Tape stripping. Compound A or monocitrate of Compound B was used as a test substance.
After one, five and seven days from the Tape Stripping, the total NMF amount of the inner side of the left auricle was determined by an in vivo confocal Raman spectrometer {model 3510, River Diagnostics, Inc.}.
A Raman spectrum in the region of 400 to 1800 cm^−1 was measured at an excitation wavelength of 785 nm at intervals of 1 micrometer from the surface of the inner side of the left auricle to the depth of 8 micrometers. A total NMF amount was quantified as an amount per keratin by using Skin Tools 2.0 {River Diagnostics, Inc.}. […] An average value of the total NMF amount was calculated for each measurement depth, and was shown as an individual value at each depth.

[3] = test system: three-dimensional culture skin model TESTSKIN LSE-high; experiment: Increase in protein amount of skin barrier-related protein in three-dimensional culture skin model (Western blotting); type: cell-based, human; settings: 1000 nmol/L
Procedure: Experiment 4. Increase in Protein Amount of Skin Barrier-Related Protein by JAK Inhibitor in Three-Dimensional Culture Skin Model
As a three-dimensional cultured skin model, TESTSKIN LSE-high {TOYOBO CO., LTD., TMLSE-013A} was used <Non-Patent Literature 11>. According to the instruction manual of the TESTSKIN LSE-high, the Living Skin Equivalent <LSE> tissue on the Transwell was cultured in an assay medium included in the kit at 37° C. under 5% CO2 for 24 hours.
After removing the medium from the LSE tissue culture system, an assay medium containing Compound A in a final concentration of 1000 nmol/L was added in the presence or absence of human IL-4 and human IL-13 {R&D Systems, Inc.} in a final concentration of 20 ng/mL, respectively, and the LSE tissue was cultured at 37° C. under 5% CO2 for three days. The medium was replaced in the same manner as described above, and the LSE tissue was cultured at 37 ° C. under 5% CO2 for another two days. The skin layer of the LSE tissue was collected in a tube, and 0.1 mL of a 50 mmol/L Tris-HCl (pH 8.0) buffer containing 9 mol/L urea, 2% Triton X-100, protease inhibitor cocktail {Sigma-Aldrich Corporation, P8340} and phosphatase inhibitor cocktail {NACALAI TESQUE, INC., 07575-51} was added, and lysed by ultrasonication. To the tissue lysate, 0.08 mL of laemmli SDS-PAGE sample buffer containing 1.73 mmol/L 2-mercaptoethanol was added, and heated at 95 degrees Celsius for five minutes to thermally denature proteins.
The thermally denatured proteins (0.015 mg/lane) were separated by SDS-polyacrylamide electrophoresis <SDS-PAGE> on 4-12% NuPAGE Bis-Tris gel {Life technologies Corporation}, and filaggrin protein and loricrin protein were detected by Western blotting method. As an internal standard, GAPDH protein was detected. According to ordinary methods, the protein that was separated by SDS-PAGE was blotted on a PVDF membrane {GE Healthcare Ltd.}, and the PVDF membrane was blocked with 5% skim milk {NACALAI TESQUE, INC.}. […] The protein of interest was detected by light exposure to an autoradiography film, Amersham Hyperfilm ECL {GE Healthcare Ltd.} from the PVDF membrane, by using a chemiluminescent substrate {ECL Western Blotting Detection Reagents; GE Healthcare Ltd., RPN2232} according to the instruction manual.

[4] = test system: dry skin model mouse; experiment: TEWL in dry skin model mouse; type: in vivo; settings: dry skin (A/E/W) model mouse, 0.5% (w/v) topical once a day, Days 0, 1, 3, 4 and 7; FIG. 12
Procedure: (§1) “Production of Dry Skin Model Mouse”
(§2) Using a dry skin model mouse <Non-Patent Literature 12>, the effect of improving the skin barrier function by a JAK inhibitor was evaluated. As an experimental animal, an 8 weeks old female C57BL/6JJmsSlc mouse {Japan SLC, Inc.} was used.
(§3) Absorbent cotton dipped in a mixed liquid of acetone and diethyl ether (1:1) was put on the surface of the inner side of the right or both auricles of the mouse for 30 seconds, and then absorbent cotton dipped in water was put on the same region for 30 seconds <hereinafter, abbreviated as an A/E/W treatment>. This treatment was conducted twice a day for seven days for each group to produce a dry skin model. The day on which the A/E/W treatment started was taken as Day 0. As a normal control group, a mouse not having undergone the A/E/W treatment was used. […]
A mouse having undergone the A/E/W treatment on its right auricle was used in the experiment. TEWL in the region where the A/E/W treatment had been conducted was measured directly before the A/E/W treatment on Days 0, 1, 3 and 4, and on Day 7 <Compound A administration group and Vehicle group; n=4, respectively>. TEWL was measured by using a water loss measuring device VAPOSCAN AS-VT100RS {ASAHIBIOMED} at room temperatures (23° C. to 26° C.) and a humidity of 40% to 60%. […]

[5] = test system: dry skin model mouse; experiment: NMF production in dry skin model mouse (confocal Raman); type: in vivo; settings: dry skin (A/E/W) model mouse, 0.5% (w/v) topical once a day, Day 7; FIG. 11
Procedure: as §1, §2
as §3, with “model.” for “model. The day on which the A/E/W treatment started was taken as Day 0. As a normal control group, a mouse not having undergone the A/E/W treatment was used.”
A mouse having undergone the A/E/W treatment on its both auricles was used in the experiment. On Day 7, the total NMF amount of the stratum corneum of both the auricles of the mouse was determined by an in vivo confocal Raman spectrometer {model 3510, River Diagnostics, Inc.} <Compound A administration group and Vehicle group; n=3, respectively>.
A Raman spectrum in the region of 400 to 1800 cm^−1 was measured at an excitation wavelength of 785 nm at intervals of 1 micrometer from the surface of the inner side of the left auricle to the depth of 8 micrometers. A total NMF amount was quantified as an amount per keratin by using Skin Tools 2.0 {River Diagnostics, Inc.}. […]

[6] = test system: JAK; settings: cited from earlier work
[7] = test system: dry skin model mouse; experiment: Profilaggrin mRNA amount in dry skin model mouse (quantitative real-time PCR); type: in vivo; settings: dry skin (A/E/W) model mouse, 0.5% (w/v) topical once a day, Days 0, 3 and 6, ratio to Day 0; FIG. 10
Procedure: Experiment 5. Increase in Profilaggrin mRNA Amount, Increase of NMF Production and Acceleration of Reduction in TEWL by JAK Inhibitor in Dry Skin Model Mouse
as §1, §2
as §3, with “0.” for “0. As a normal control group, a mouse not having undergone the A/E/W treatment was used.”
“Quantitative Real-Time PCR”
A mouse having undergone the A/E/W treatment on its right auricle was used in the experiment. […] The cDNA was analyzed by real-time PCR method <intercalator method> using Light Cycler 480 SYBR Green I Master {Roche Diagnostics K.K.} and Light Cycler 480 II {Roche Diagnostics K.K.}, and the Ct values of mouse profilaggrin and GAPDH were respectively determined. […] A relative mRNA amount of mouse profilaggrin was calculated by comparative Ct method. […]

[8] = in the absence of IL-4/IL-13, five days
[9] = in the presence of IL-4/IL-13 20 ng/mL, five days, FIG. 8

| Structure (SMILES) | ear swelling (auricle thickness variation) [1] | total NMF amount (NMF production) [2] | filaggrin protein amount [3, 8] | loricrin protein amount [3, 8] | filaggrin protein amount [3, 9] | loricrin protein amount [3, 9] | TEWL (transepidermal water loss) [4] | total NMF amount (NMF production) [5] | JAK inhibition ([6]; stated as known) | profilaggrin mRNA amount [7] | JAK inhibition [6] |
| --- | --- | --- | --- | --- | --- | --- | --- | --- | --- | --- | --- |
| C[C@H]1CN(C(=O)CC#N)[C@]12CCN(c1ncnc3[nH]ccc13)C2 [Compound A, 3-[(3S,4R)-3-methyl-6-(7H-pyrrolo[2,3-d]pyrimidin-4-yl)-1,6-diazaspiro[3.4]octan-1-yl]-3-oxopropanenitrile] | suppression of ear swelling | NMF production increasing action | increase | increase | increase | increase | accelerating a reduction in TEWL | NMF production increasing action | known to inhibit JAK | increase | – |
| N#CC[C@H](C1CCCC1)n1cc(-c2ncnc3[nH]ccc23)cn1 [Compound C, (3R)-3-cyclopentyl-3-[4-(7H-pyrrolo[2,3-d]pyrimidin-4-yl)-1 H-pyrazol-1-yl]propanenitrile, reference compound] | – | – | – | – | – | – | – | – | – | – | known to inhibit JAK |
| C[C@@H]1CCN(C(=O)CC#N)C[C@@H]1N(C)c1ncnc2[nH]ccc12 [monocitrate of Compound B, 3-{(3R,4R)-4-methyl-3-[methyl(7H-pyrrolo[2,3-d]pyrimidin-4-yl)amino]piperidin-1-yl}-3-oxopropanenitrile, reference compound] | – | NMF production increasing action | – | – | – | – | – | – | – | – | – |
